System: KRAS patient-derived spheroids with HUVEC/MSC, viability
Assay: Anticancer human tumor 323965-272-R-J2-PDC patient-derived pancreatic carcinoma cell line growth inhibition [KRAS2]
Conditions: for IC50: curve of first compound; for viability, T/C: stronger effect = lower value
From the text: Multicellular complex tumor spheroid response to RAS pathway inhibitors in combination with a targeted agents in patient-derived cell lines with oncogenic KRAS variants from multiple cancer types
A high-throughput screen of multi-cell type tumor spheroids was designed to identify active combinations of targeted small molecules and KRAS pathway inhibitors. Complex spheroids include a stromal component modeled by human endothelial cells (HUVEC) and fibroblasts modeled by human mesenchymal stem cells (MSCs). The concentration ranges selected for each drug and investigational agent were based upon clinically achievable concentrations if the clinical Cmax of the agent was known.
Compounds. The drugs and investigational agents: BI-3406 (NSC825286), BAY-293 (NSC824723), batoprotafib (TNO155; NSC825523), sotorasib (AMG 510; NSC818433), MRTX1257 (NSC819558), elimusertib (BAY 1895344; NSC800525), molibresib (GSK525762; NSC774829), temuterkib (LY3214996; NSC803410), venetoclax (NSC766270), alisertib (NSC759677), olaparib (NSC753686), talazoparib (NSC767125), erdafitinib (NSC781556), ipatasertib (NSC767898), cabozantinib (NSC761068), nintedanib (NSC756659), abemaciclib (NSC768073), docetaxel (NSC628503), trametinib (NSC758246), and sapanisertib (NSC764658) were obtained from the National Cancer Institute (NCI) Developmental Therapeutics Program Chemical Repository. The FDA-approved anticancer drug set is available from the Developmental Therapeutics Program. […] The stock solutions were prepared in dimethyl sulfoxide (DMSO, Sigma-Aldrich, St. Louis, MO, cat. D2650) at 800-fold the tested concentration and stored at -70 degrees C prior to their use. All drugs and investigational agents were tested over a range starting from a high concentration at or near the clinical Cmax and decreasing in half-log increments. If the clinical Cmax for an agent had not been determined, the highest concentration tested was 10 microM.
Cell Culture. All cells were maintained in an incubator at 37 degrees C and 5% CO2 with 95% humidity. The PDC lines were cultured according to standard operating procedures established by the NCI PDMR (https://pdmr.cancer.gov/sops/default.htm). Briefly, all PDCs were thawed and cultured in Matrigel-coated flasks prepared with a working solution of 1X Ham's F-12 nutrient mix, without supplementation (Invitrogen, Waltham, MA, cat. 11765054), 100 U/mL penicillin-streptomycin (Invitrogen, cat. 15140122), and 2.5% Matrigel (Corning Inc., Corning, NY, cat. 354248) for the first three passages. All PDCs were cultured in complete DMEM/F-12 media containing advanced DMEM/F-12 (Invitrogen, cat. 12634028), 4.9% defined fetal bovine serum, heat inactivated (HyClone Laboratories Inc., Logan, UT, cat. SH30070.03HI), 389 ng/mL hydrocortisone (Sigma-Aldrich, cat. H4001), 9.7 ng/mL human EGF recombinant protein (Invitrogen, cat. PHG0313), 23.4 microg/mL adenine (Sigma-Aldrich, cat. A2786), 97.3 U/mL penicillin-streptomycin (Invitrogen, cat. 15140122), 1.9 mM L-glutamine (Invitrogen, cat. 25030081), and 9.7 microM Y-27632 dihydrochloride (Tocris Bioscience, Bristol, United Kingdom, cat. 1254). The PDCs were cultured in complete DMEM/F12 media without 9.7 microM Y-27632 dihydrochloride for at least two passages prior to the screen. The established cell line HOP-62 was cultured in RPMI 1640 medium, HEPES (Invitrogen, cat. 22400105) with 10% defined fetal bovine serum (HyClone Laboratories Inc., cat. SH30070.03) and 2 mM L-glutamine (Invitrogen, cat. 25030081). The pooled donor HUVEC were cultured in endothelial cell growth medium 2 (PromoCell, Heidelberg, Germany, cat. C-22011) and the hMSC were cultured in mesenchymal stem cell growth medium 2 (PromoCell, cat. C-28009). For all experiments, HUVEC and hMSC were used at passages </=5, while the malignant cell lines were used at passages </=15. […]

[1] = second compound 0.1 µM, first compound 0.0316 µM
[2] = second compound 0.316 µM, first compound 0.0316 µM
[3] = second compound 1 µM, first compound 0.0316 µM
[4] = second compound 3.16 µM, first compound 0.0316 µM
[5] = second compound 10 µM, first compound 0.0316 µM
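Further: spheroids exposed to agents for 7 days.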
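Wherever viability, T/C is given: 100% = DMSO vehicle control viability.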

CC(=O)Nc1cccc(-n2c(=O)n(C3CC3)c(=O)c3c(Nc4ccc(I)cc4F)n(C)c(=O)c(C)c32)c1 + C=CC(=O)N1CCN(c2nc(=O)n(-c3c(C)ccnc3C(C)C)c3nc(-c4c(O)cccc4F)c(F)cc23)C(C)C1
IC50 (second compound 0.1 µM): 1.15 nM
IC50 (second compound 0.316 µM): 0.987 nM
IC50 (second compound 1 µM): 0.79 nM
IC50 (second compound 3.16 µM): 1.19 nM
IC50 (second compound 10 µM): 0.295 nM
viability, T/C (second compound 0.1 µM, first compound 0.0001 µM): 67.4%
viability, T/C (second compound 0.1 µM, first compound 0.000316 µM): 62.2%
viability, T/C (second compound 0.1 µM, first compound 0.001 µM): 49.2%
viability, T/C (second compound 0.1 µM, first compound 0.00316 µM): 40.1%
viability, T/C (second compound 0.1 µM, first compound 0.01 µM): 36.6%
viability, T/C [1]: 23.4%
viability, T/C (second compound 0.316 µM, first compound 0.0001 µM): 60.1%
viability, T/C (second compound 0.316 µM, first compound 0.000316 µM): 57.1%
viability, T/C (second compound 0.316 µM, first compound 0.001 µM): 49.3%
viability, T/C (second compound 0.316 µM, first compound 0.00316 µM): 41.5%
viability, T/C (second compound 0.316 µM, first compound 0.01 µM): 33.7%
viability, T/C [2]: 20.9%
viability, T/C (second compound 1 µM, first compound 0.0001 µM): 61.4%
viability, T/C (second compound 1 µM, first compound 0.000316 µM): 58.3%
viability, T/C (second compound 1 µM, first compound 0.001 µM): 46.4%
viability, T/C (second compound 1 µM, first compound 0.00316 µM): 40.4%
viability, T/C (second compound 1 µM, first compound 0.01 µM): 32.7%
viability, T/C [3]: 27%
viability, T/C (second compound 3.16 µM, first compound 0.0001 µM): 64.1%
viability, T/C (second compound 3.16 µM, first compound 0.000316 µM): 59.5%
viability, T/C (second compound 3.16 µM, first compound 0.001 µM): 51.4%
viability, T/C (second compound 3.16 µM, first compound 0.00316 µM): 42.1%
viability, T/C (second compound 3.16 µM, first compound 0.01 µM): 36.7%
viability, T/C [4]: 28.2%
viability, T/C (second compound 10 µM, first compound 0.0001 µM): 60.9%
viability, T/C (second compound 10 µM, first compound 0.000316 µM): 54.3%
viability, T/C (second compound 10 µM, first compound 0.001 µM): 32.6%
viability, T/C (second compound 10 µM, first compound 0.00316 µM): 35.8%
viability, T/C (second compound 10 µM, first compound 0.01 µM): 28.1%
viability, T/C [5]: 23.8%

COc1cc(Nc2ncc3c(n2)-c2ccc(Cl)cc2C(c2c(F)cccc2OC)=NC3)ccc1C(=O)O + C=CC(=O)N1CCN(c2nc(=O)n(-c3c(C)ccnc3C(C)C)c3nc(-c4c(O)cccc4F)c(F)cc23)C(C)C1
IC50 (second compound 0.1 µM): < 31.6 nM
IC50 (second compound 0.316 µM): < 31.6 nM
IC50 (second compound 1 µM): < 31.6 nM
IC50 (second compound 3.16 µM): < 31.6 nM
IC50 (second compound 10 µM): < 31.6 nM
viability, T/C [1]: 53.5%
viability, T/C (second compound 0.1 µM, first compound 0.1 µM): 36.2%
viability, T/C (second compound 0.1 µM, first compound 0.316 µM): 26.4%
viability, T/C (second compound 0.1 µM, first compound 1 µM): 31.7%
viability, T/C (second compound 0.1 µM, first compound 3.16 µM): 43.3%
viability, T/C (second compound 0.1 µM, first compound 10 µM): 46.3%
viability, T/C [2]: 54.1%
viability, T/C (second compound 0.316 µM, first compound 0.1 µM): 35.3%
viability, T/C (second compound 0.316 µM, first compound 0.316 µM): 28.8%
viability, T/C (second compound 0.316 µM, first compound 1 µM): 30.1%
viability, T/C (second compound 0.316 µM, first compound 3.16 µM): 39.8%
viability, T/C (second compound 0.316 µM, first compound 10 µM): 51.6%
viability, T/C [3]: 53%
viability, T/C (second compound 1 µM, first compound 0.1 µM): 34%
viability, T/C (second compound 1 µM, first compound 0.316 µM): 24.2%
viability, T/C (second compound 1 µM, first compound 1 µM): 33.2%
viability, T/C (second compound 1 µM, first compound 3.16 µM): 47.7%
viability, T/C (second compound 1 µM, first compound 10 µM): 51.5%
viability, T/C [4]: 46.5%
viability, T/C (second compound 3.16 µM, first compound 0.1 µM): 27.5%
viability, T/C (second compound 3.16 µM, first compound 0.316 µM): 22.2%
viability, T/C (second compound 3.16 µM, first compound 1 µM): 34.1%
viability, T/C (second compound 3.16 µM, first compound 3.16 µM): 34.7%
viability, T/C (second compound 3.16 µM, first compound 10 µM): 38.4%
viability, T/C [5]: 27.3%
viability, T/C (second compound 10 µM, first compound 0.1 µM): 18.9%
viability, T/C (second compound 10 µM, first compound 0.316 µM): 20.2%
viability, T/C (second compound 10 µM, first compound 1 µM): 23%
viability, T/C (second compound 10 µM, first compound 3.16 µM): 23.7%
viability, T/C (second compound 10 µM, first compound 10 µM): 27.1%
